Results: PubChem BioAssay (NCI)
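These data come from cells grown in 96-well plates and exposed to compound for 48 hours at five concentrations. TGI is the concentration that stops growth completely.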

Tests used:
Assay in all cases: NCI anticancer screen, dose series, 48 h
SF-539 CNS = tested on: SF-539 CNS
LOX IMVI melanoma = tested on: LOX IMVI melanoma
HOP-62 NSCLC = tested on: HOP-62 NSCLC
UACC-62 melanoma = tested on: UACC-62 melanoma
HCC-2998 colon = tested on: HCC-2998 colon
SF-268 CNS = tested on: SF-268 CNS
OVCAR-4 ovarian = tested on: OVCAR-4 ovarian
UACC-257 melanoma = tested on: UACC-257 melanoma
TK-10 renal = tested on: TK-10 renal
IGROV1 ovarian = tested on: IGROV1 ovarian
CAKI-1 renal = tested on: CAKI-1 renal
NCI-H522 lung = tested on: NCI-H522 lung
ACHN renal = tested on: ACHN renal
SNB-75 CNS = tested on: SNB-75 CNS
HCT-116 colon = tested on: HCT-116 colon
RXF 393 renal = tested on: RXF 393 renal
HT29 colon = tested on: HT29 colon
KM20L2 colon = tested on: KM20L2 colon
LXFL 529 NSCLC = tested on: LXFL 529 NSCLC
OVCAR-5 ovarian = tested on: OVCAR-5 ovarian
EKVX NSCLC = tested on: EKVX NSCLC
KM12 colon = tested on: KM12 colon
NCI-H226 lung = tested on: NCI-H226 lung
SNB-19 CNS = tested on: SNB-19 CNS
CCRF-CEM leukemia = tested on: CCRF-CEM leukemia
A498 renal = tested on: A498 renal
786-0 renal = tested on: 786-0 renal
SK-MEL-28 melanoma = tested on: SK-MEL-28 melanoma
SW-620 colon = tested on: SW-620 colon
XF 498 CNS = tested on: XF 498 CNS
U251 CNS = tested on: U251 CNS
HOP-92 NSCLC = tested on: HOP-92 NSCLC
RXF-631 renal = tested on: RXF-631 renal
COLO 205 colon = tested on: COLO 205 colon
DMS 114 small cell lung = tested on: DMS 114 small cell lung
SK-MEL-5 melanoma = tested on: SK-MEL-5 melanoma
UO-31 renal = tested on: UO-31 renal
SF-295 CNS = tested on: SF-295 CNS
SK-OV-3 ovarian = tested on: SK-OV-3 ovarian
OVCAR-8 ovarian = tested on: OVCAR-8 ovarian
OVCAR-3 ovarian = tested on: OVCAR-3 ovarian
HOP-18 NSCLC = tested on: HOP-18 NSCLC
NCI-H460 lung = tested on: NCI-H460 lung
MALME-3M melanoma = tested on: MALME-3M melanoma
K-562 leukemia = tested on: K-562 leukemia
NCI-H23 lung = tested on: NCI-H23 lung
A549 NSCLC = tested on: A549 NSCLC
HCT-15 colon = tested on: HCT-15 colon
DLD-1 colon = tested on: DLD-1 colon
M14 melanoma = tested on: M14 melanoma
M19-MEL melanoma = tested on: M19-MEL melanoma
SN12C renal = tested on: SN12C renal
HL-60(TB) leukemia = tested on: HL-60(TB) leukemia

Measured: TGI

COc1cc(C(=O)C/C(CCC(=O)Nc2ccc(Cl)cc2Cl)=N/NC(=O)C(=O)NN)ccc1O
> 100 µM: SF-539 CNS | LOX IMVI melanoma | HOP-62 NSCLC | UACC-62 melanoma | HCC-2998 colon | SF-268 CNS | OVCAR-4 ovarian | UACC-257 melanoma | TK-10 renal | IGROV1 ovarian | CAKI-1 renal | NCI-H522 lung | ACHN renal | SNB-75 CNS | HCT-116 colon | RXF 393 renal | HT29 colon | KM20L2 colon | LXFL 529 NSCLC | OVCAR-5 ovarian | EKVX NSCLC | KM12 colon | NCI-H226 lung | SNB-19 CNS | CCRF-CEM leukemia | A498 renal | 786-0 renal | SK-MEL-28 melanoma | SW-620 colon | XF 498 CNS | U251 CNS | HOP-92 NSCLC | RXF-631 renal | COLO 205 colon | DMS 114 small cell lung | SK-MEL-5 melanoma | UO-31 renal | SF-295 CNS | SK-OV-3 ovarian | OVCAR-8 ovarian | OVCAR-3 ovarian | HOP-18 NSCLC | NCI-H460 lung | MALME-3M melanoma | K-562 leukemia | NCI-H23 lung | A549 NSCLC | HCT-15 colon | DLD-1 colon | M14 melanoma | M19-MEL melanoma | SN12C renal | HL-60(TB) leukemia
